Holding throughout (assay): growth of human tumour cells (NCI), 48 h
Experiment [1] has as its system SNB-19.
Experiment [2] relates to RXF 393.
The test system of experiment [3] is SF-268.
Experiment [4] concerns UO-31.
For experiment [5], the system named is NCI-H522.
Experiment [6] has as its system SR.
For experiment [7], the system named is OVCAR-4.
For experiment [8], the system named is OVCAR-8.
Experiment [9] has as its system UACC-62.
Experiment [10] has as its system SK-OV-3.
Experiment [11] relates to SN12C.
For experiment [12], the system named is SK-MEL-2.
The test system of experiment [13] is HT-29.
In experiment [14] the test system is IGROV-1.
Experiment [15] has as its system KM12.
Experiment [16] deals with A498.
For experiment [17], the system named is SK-MEL-5.
Experiment [18] deals with DU-145.
Experiment [19] relates to Hs-578T.

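Protocol summary: plate cells (96-well), add compound at 5 concentrations, incubate 48 h, interpolate endpoints linearly. Here, GI50 denotes the concentration required for 50% inhibition of growth.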 The source made the active and inactive calls. Rule as the data show it: active = GI50 up to about 1.1 µM and inactive = higher. Where a SMILES comes first, the peptide text is derived from it. The star is where a group is joined. Boc = CC(C)(C)OC(=O)*

Turning to `CC1(SCC(N)C(=O)O)CC(=O)NC1=O` (stereo not given), the GI50 in experiment [1], in [2], in [3], in experiment [4], in [5] and in experiment [6] was > 100 µM (inactive) throughout. In addition, the GI50 in [7], in experiment [8], in experiment [9], in experiment [10], in experiment [11] and in experiment [12] was > 100 µM (inactive) throughout. The GI50 in [13] is > 100 µM (inactive); in [14], > 100 µM (inactive); in [15] it was > 100 µM (inactive); in experiment [16] it was 0.42 µM (active); in experiment [17] it was > 100 µM (inactive).

Take `COC1/C(=C\C(C)=O)c2ccccc2N1C(C)=O` (stereo not given): the GI50 in [1], in experiment [2], in experiment [4], in [6], in [7] and in experiment [8] was > 100 µM (inactive) in each case. Besides, the GI50 in [9], in experiment [10], in [11], in [12], in [13] and in [14] was > 100 µM (inactive) each time. The GI50 in experiment [15] and in experiment [16] was > 100 µM (inactive) in each case.

On to `CCCCN(CCCC)CCC(O)c1cc(-c2ccc(C(F)(F)F)cc2)nc(-c2ccc(C(F)(F)F)cc2)c1` (stereo not given), for which the GI50 in experiment [1], in experiment [3], in experiment [4], in experiment [18], in [5] and in [6] was > 100 µM (inactive) throughout. For the same compound, the GI50 in [7], in [8], in experiment [9], in experiment [11], in [12] and in experiment [13] was > 100 µM (inactive) each time. Moreover, the GI50 in [14] and in [16] was > 100 µM (inactive) throughout.

On to `COc1ccc(NC(=O)CC(=O)n2nc(-c3ccccc3)c(/N=N/c3ccccc3C(=O)O)c2-c2ccccc2)cc1`, for which the GI50 in experiment [1] is 63 µM (inactive); in [2], 28.8 µM (inactive); in experiment [3], > 100 µM (inactive); in experiment [4], > 100 µM (inactive); in experiment [5], > 100 µM (inactive); in experiment [6] it was 62.2 µM (inactive). Moreover, the GI50 in [7] is 92.5 µM (inactive); in experiment [8], 25.2 µM (inactive); in experiment [9], > 100 µM (inactive); in experiment [10], 15.9 µM (inactive); in [11] it was > 100 µM (inactive); in experiment [12] it was > 100 µM (inactive). Besides, the GI50 in experiment [14] was 83.4 µM (inactive); in experiment [15] it was > 100 µM (inactive); in experiment [17] it was > 100 µM (inactive).

Turning to `O=c1oc2cccnc2n1CCN1CCN(c2ccc(Oc3ccccc3)cc2)CC1`, the GI50 in experiment [1] was > 100 µM (inactive); in [2] it was > 100 µM (inactive); in experiment [3], > 100 µM (inactive); in experiment [4], 41.1 µM (inactive); in experiment [18], > 100 µM (inactive); in experiment [19], > 100 µM (inactive). Moreover, the GI50 is 31.6 µM (inactive) in experiment [5]; 8.71 µM (inactive) in experiment [6]; 15.7 µM (inactive) in [7]; > 100 µM (inactive) in [8]; > 100 µM (inactive) in experiment [10]; > 100 µM (inactive) in experiment [12]. Besides, the GI50 was 7.82 µM (inactive) in experiment [13], > 100 µM (inactive) in experiment [14], 40.9 µM (inactive) in experiment [16] and 10.2 µM (inactive) in experiment [17].

As for `S=c1sc2c(n1-c1ccccc1)N=CNC2S` (stereo not given), the GI50 was 73.1 µM (inactive) in [1]; > 100 µM (inactive) in [2]; 56.5 µM (inactive) in experiment [3]; 37.3 µM (inactive) in experiment [4]; 45.5 µM (inactive) in experiment [5]; 95.9 µM (inactive) in experiment [6]. In addition, the GI50 in experiment [7] was > 100 µM (inactive); in experiment [8], > 100 µM (inactive); in experiment [9], 43.7 µM (inactive); in [10], > 100 µM (inactive); in experiment [11], 69.3 µM (inactive); in experiment [12] it was > 100 µM (inactive). The GI50 is > 100 µM (inactive) in experiment [13], > 100 µM (inactive) in experiment [14], > 100 µM (inactive) in experiment [15] and 57 µM (inactive) in experiment [17].

Take `Nc1nc(SCc2ccccc2Cl)c2ncn(C3OC(CO)C(O)C3O)c2n1` (stereo not given): the GI50 is 38.8 µM (inactive) in experiment [1]; 28.6 µM (inactive) in experiment [2]; 80.4 µM (inactive) in experiment [3]; 29.1 µM (inactive) in experiment [4]; 30.1 µM (inactive) in experiment [5]; 42.7 µM (inactive) in experiment [6]. Also, the GI50 is 74.3 µM (inactive) in [7]; 89.9 µM (inactive) in [8]; 72.3 µM (inactive) in [9]; > 100 µM (inactive) in experiment [10]; > 100 µM (inactive) in [11]; > 100 µM (inactive) in [12]. Also, the GI50 is > 100 µM (inactive) in experiment [13]; > 100 µM (inactive) in experiment [14]; > 100 µM (inactive) in [15]; 87.3 µM (inactive) in experiment [16]; 54.2 µM (inactive) in experiment [17].

For `CC(C)(C)OC(=O)NC(Cc1ccc(O)cc1)C(=O)N1CCCC1C(=O)O` (stereo not drawn) (Boc-Tyr-Pro-OH; configuration not given here), the GI50 in experiment [1], in [2], in [3], in experiment [4], in experiment [5] and in experiment [6] was > 100 µM (inactive) in each case. Besides, the GI50 in [7], in [8], in experiment [9], in experiment [10], in experiment [11] and in experiment [12] was > 100 µM (inactive) throughout. Further, the GI50 in experiment [13], in experiment [14], in experiment [15], in experiment [16] and in experiment [17] was > 100 µM (inactive) in each case.

On to `O=S(=O)(O)CS(=O)(=O)OCCCl`, for which the GI50 in experiment [1], in experiment [2], in experiment [3], in experiment [4], in [5] and in [6] was > 100 µM (inactive) each time. Moreover, the GI50 in experiment [7], in experiment [8], in experiment [9], in [10], in [11] and in experiment [13] was > 100 µM (inactive) throughout. Moreover, the GI50 in experiment [14], in experiment [15], in experiment [16] and in experiment [17] was > 100 µM (inactive) each time.

As to `Cc1cc(C)c(OC(=O)Nc2cccc3ccccc23)c(-c2ccccc2)c1`, the GI50 in experiment [3] is 12.6 µM (inactive); in experiment [4] it was 7.52 µM (inactive); in experiment [18] it was 31.9 µM (inactive); in experiment [19], 25 µM (inactive); in experiment [6], 19.6 µM (inactive); in [7], 31.3 µM (inactive). Besides, the GI50 in [8] is 33.6 µM (inactive); in experiment [9] it was 30.4 µM (inactive); in experiment [10], 67.6 µM (inactive); in experiment [11], 38.2 µM (inactive); in experiment [12], > 10 µM (inactive); in experiment [13], 43.2 µM (inactive). For the same compound, the GI50 was 36.5 µM (inactive) in experiment [14], 28.4 µM (inactive) in experiment [15] and 16.4 µM (inactive) in experiment [17].

On to `Cc1ccc(C(=O)O/N=C2/CCCCC2CN(C)C)cc1` (stereo not given), for which the GI50 in experiment [2] is > 100 µM (inactive); in [3], > 10 µM (inactive); in experiment [4], > 100 µM (inactive); in experiment [5], > 100 µM (inactive); in experiment [6], > 100 µM (inactive); in experiment [7] it was > 100 µM (inactive). The GI50 in experiment [8], in [9], in experiment [10], in experiment [11], in experiment [12] and in [13] was > 100 µM (inactive) each time. Besides, the GI50 in [14], in experiment [15], in experiment [16] and in experiment [17] was > 100 µM (inactive) in each case.

Regarding `CSc1cnc2ccccc2c1Sc1c[nH]c2ccccc2c1=O`, the GI50 in [1] is 20 µM (inactive); in experiment [2], 13.7 µM (inactive); in experiment [3], 17.3 µM (inactive); in [4] it was 14 µM (inactive); in [5] it was 1.93 µM (inactive); in [6] it was 3.96 µM (inactive). Also, the GI50 in [7] is 14.1 µM (inactive); in experiment [8], 14 µM (inactive); in [9], 4.03 µM (inactive); in experiment [10], 3.51 µM (inactive); in experiment [11], 11.8 µM (inactive); in [12] it was 10.4 µM (inactive). Besides, the GI50 is 3.72 µM (inactive) in experiment [13]; 14.4 µM (inactive) in experiment [14]; 6.82 µM (inactive) in [15]; 12.4 µM (inactive) in experiment [16]; 6.25 µM (inactive) in experiment [17].

The record behind these values is ChEMBL document CHEMBL1201862, “PubChem BioAssay data set” (2004).
